Test results taken from US20260223854A1, “AN HERBICIDAL COMBINATION, COMPOSITION AND METHOD OF CONTROLLING WEEDS USING THE SAME” (priority 2023, published 2026).

How the values were obtained:
Format in all cases: in vivo
Amaranthus viridis = test: Greenhouse post-emergence herbicidal activity on Amaranthus viridis; conditions: L-glufosinate ammonium 150 g a.i./ha
Experimental: (§1) The expected efficacy of a combination of L-glufosinate ammonium and the other herbicides was calculated using the well-established Colby method. Any difference between the observed and “expected” efficacy could be attributed to synergy between the two compounds.
(§2) In the Colby method, the expected (or predicted) response of a combination of herbicides is calculated by taking the product of the observed response for each individual component of the combination when applied alone, divided by 100, and subtracting this value from the sum of the observed response for each component when applied alone. An unexpected enhancement in efficacy of the combination is then determined by comparing the observed response of the combination to the expected (or predicted) response as calculated from the observed response of each individual component alone. If the observed response of the combination is greater than the expected (or predicted) response, or stated conversely, if the difference between the observed and expected response is greater than zero, then the combination is said to be synergistic or unexpectedly effective (Colby, S. R., Weeds, 1967 (15), p. 20-22). The Colby method requires only a single dose of each herbicide applied alone and the mixture of both doses. The formula used to calculate the expected efficacy (EE) which was compared with the observed efficacy (OE) to determine the efficacy of the present disclosure is explained hereinbelow:
(§3) Methodology: Greenhouse trials were conducted to evaluate the efficacy of the combination of L-glufosinate ammonium and triketone herbicides—mesotrione and tembotrione—on weeds Amaranthus viridis, Borreria verticillata, Brachiaria decumbens and Eleusine indica.
(§4) The soil used was sandy clay loam—sand: 68.0%; silt: 8.0%; clay: 24.0%.
(§5) All treatments were in 4 replications per treatment with a spray volume of 150 L/ha.
The percentage efficacy was calculated at 3 and 7 days after application (DAA). The target weed was Amaranthus viridis, and the concentration of the herbicide and the results are recorded in Table 4.
The percentage efficacy was calculated at 3 and 7 days of application (DAA). The target weed was Amaranthus viridis, and the concentration of the herbicide and the results are recorded Table 5.

Brachiaria decumbens = test: Greenhouse post-emergence herbicidal activity on Brachiaria decumbens; conditions: 3 DAA, L-glufosinate ammonium 150 g a.i./ha
Experimental: as §1, §2, §3, §4, §5
The percentage efficacy was calculated at 14 days after application (DAA). The target weed was Brachiaria decumbens, and the concentration of the herbicide and the results are recorded in Table 1.
The percentage efficacy was calculated at 3 days of application (DAA). The target weed was Brachiaria decumbens and the concentration of the herbicide and the results are recorded in Table 7.

Eleusine indica = test: Greenhouse post-emergence herbicidal activity on Eleusine indica; conditions: L-glufosinate ammonium 150 g a.i./ha
Experimental: as §1, §2, §3, §4, §5
The percentage efficacy was calculated at 14 days after application (DAA). The target weed was Eleusine indica, and the concentration of the herbicide and the results are recorded in Table 3.
The percentage efficacy was calculated at 3, 7, 21, 28, 35 days of application (DAA). The target weed was Eleusine indica, and the concentration of the herbicide and the results are recorded in Table 8.

Borreria verticillata = test: Greenhouse post-emergence herbicidal activity on Borreria verticillata; conditions: L-glufosinate ammonium 150 g a.i./ha
Experimental: as §1, §2, §3, §4, §5
The percentage efficacy was calculated at 28 and 35 days after application (DAA). The target weed was Borreria verticillata, and the concentration of the herbicide and the results are recorded in Table 2.
The percentage efficacy was calculated at 3 and 7 days of application (DAA). The target weed was Borreria verticillata, and the concentration of the herbicide and the results are recorded in Table 6.

[1] = 3 DAA, tembotrione 53 g a.i./ha, Table 5
[2] = 7 DAA, tembotrione 53 g a.i./ha, Table 5
[3] = tembotrione 53 g a.i./ha, Table 7
[4] = 3 DAA, tembotrione 53 g a.i./ha, Table 8
[5] = 7 DAA, tembotrione 53 g a.i./ha, Table 8
[6] = 21 DAA, tembotrione 53 g a.i./ha, Table 8
[7] = 28 DAA, tembotrione 53 g a.i./ha, Table 8
[8] = 35 DAA, tembotrione 53 g a.i./ha, Table 8
[9] = 3 DAA, tembotrione 53 g a.i./ha, Table 6
[10] = 7 DAA, tembotrione 53 g a.i./ha, Table 6
[11] = 3 DAA, mesotrione 100 g a.i./ha, Table 4
[12] = 7 DAA, mesotrione 100 g a.i./ha, Table 4
[13] = mesotrione 100 g a.i./ha, Table 1
[14] = 14 DAA, mesotrione 100 g a.i./ha, Table 3
[15] = 28 DAA, mesotrione 100 g a.i./ha, Table 2
[16] = 35 DAA, mesotrione 100 g a.i./ha, Table 2

Row | SMILES | % Control (Amaranthus viridis; [1]) | % Control (Amaranthus viridis; [2]) | % Control (Brachiaria decumbens; [3]) | % Control (Eleusine indica; [4]) | % Control (Eleusine indica; [5]) | % Control (Eleusine indica; [6]) | % Control (Eleusine indica; [7]) | % Control (Eleusine indica; [8]) | % Control (Borreria verticillata; [9]) | % Control (Borreria verticillata; [10]) | % Control (Amaranthus viridis; [11]) | % Control (Amaranthus viridis; [12]) | % Control (Brachiaria decumbens; [13]) | % Control (Eleusine indica; [14]) | % Control (Borreria verticillata; [15]) | % Control (Borreria verticillata; [16])
1 | CS(=O)(=O)c1ccc(C(=O)C2C(=O)CCCC2=O)c(Cl)c1COCC(F)(F)F [Tembotrione, tembotrione] | 10% | 30% | 8% | 5% | 15% | 28% | 35% | 20% | 10% | 30% | – | – | – | – | – | –
2 | CS(=O)(=O)c1ccc(C(=O)C2C(=O)CCCC2=O)c([N+](=O)[O-])c1 [Mesotrione, mesotrione] | – | – | – | – | – | – | – | – | – | – | 10% | 30% | 10% | 20% | 75% | 75%
3 | CP(=O)(O)CC[C@H](N)C(=O)O.N [L-glufosinate ammonium, ammonium (2S)-2-amino-4-(methylphosphinato) butyric acid] | 50% | 80% | 40% | 40% | 50% | 50% | 30% | 40% | 55% | 80% | 40% | 80% | 40% | 30% | 90% | 85%
